# Source: PMC3230571 (International Journal of Nanomedicine, 2011)
# Tested on: rats with streptozotocin-induced diabetes
# Assay: Hypoglycemic effect and relative bioavailability after oral administration
# Format: in vivo, rat
# Settings: diabetic rats fasted 12 hours, oral 20 IU/kg, n = 6
substance,measurement,value
insulin,Hypoglycemic effect (plasma glucose relative to the initial value),did not appreciably lower the blood glucose levels
